Where two headings read alike, the source gives them in different places.
Experiments:
[1] = test system: HCV replicon RNA, genotype 1a (strain H77); test: HCV replicon assay qRT-PCR, genotype 1a (Huh-1a7 replicon cell line); format: cell-based; conditions: Hepatitis C virus, read-out: 1a EC50
Source text: (§1) HCV replicon cell lines (kindly provided by R. Bartenschlager) isolated from colonies as described by Lohman et al. (Lohman et al. (1999) Science 285: 110-113, expressly incorporated by reference in its entirety) and used for all experiments. One of the HCV replicon cell lines (strain Con1, genotype 1b) has the nucleic acid sequence set forth in EMBL Accession No.: AJ242651, the coding sequence of which is from nucleotides 1801 to 8406. Another replicon cell line (strain H77, genotype 1a) was constructed as described by Yi et. al. (Yi et. al. (2004) Journal of Virology 78(15):7904-15). […]
(§2) EC50 values of single agent compounds were determined by HCV RNA detection using quantitative RT-PCR, according to the manufacturer's instructions, with a TAQMAN® One-Step RT-PCR Master Mix Reagents Kit (Cat#AB 4309169, Applied Biosystems) on an ABI Model 7500 thermocycler. EC50 values of combinations are similarly determined by HCV RNA detection using quantitative RT-PCR. The TAQMAN primers to use for detecting and quantifying HCV RNA obtained from Integrated DNA Technologies. HCV RNA is normalized to GAPDH RNA levels in drug-treated cells, which is detected and quantified using the Human GAPDH Endogenous Control Mix (Applied Biosystems, AB 4310884E). […] Chemical agent cytotoxicity is evaluated using an MTS assay according to the manufacturer's directions (Promega). […]

[2] = test system: HCV replicon RNA, genotype 1b (strain Con1); test: HCV replicon assay qRT-PCR, genotype 1b (SGR 11-7 replicon cell line); format: cell-based; conditions: Hepatitis C virus, read-out: 1b EC50
Source text: as §1, §2

| SMILES | EC50 ([1]; Genotype-1a replicon, HCV RNA by qRT-PCR normalized to GAPDH RNA) [µM] | EC50 ([2]; Genotype-1b replicon, HCV RNA by qRT-PCR normalized to GAPDH RNA) [µM] | EC50 [1] [µM] | EC50 [2] [µM] |
| --- | --- | --- | --- | --- |
| C=C=C[C@@]1(O)C(O)[C@@H](CO)O[C@H]1n1ccc(=O)[nH]c1=O (stereo partly shown) [Example 1] | > 10 | > 10 |  |  |
| C=C=C[C@@]1(O)C(O)[C@@H](COP(=O)(N[C@@H](C)C(=O)OC)Oc2cccc3ccccc23)O[C@H]1n1ccc(=O)[nH]c1=O (stereo partly shown) [Example 2] |  |  | 1 to 10 | 1 to 10 |

Reference: US9085599B2, “2′allene-substituted nucleoside derivatives” (priority 2011, dated 2015)
